Assays:
[1] = protoporphyrin IX generated as a result of metabolizing 5-ALA in the cytoplasm; cited from earlier work
[2] = Absorption spectrum of PS1 and common photosensitizers in DMSO; type: physicochemical
Method: (§1) The absorption maximum of all of the substances was measured in DMSO.
The absorption spectrum of the synthesized PS1 was measured. […] In addition, absorption spectra were measured at different concentrations, and the absorption at a wavelength of 775 nm was then plotted to obtain a molar adsorption coefficient. As a result, the molar adsorption coefficient was 41000 (M^−1 cm^−1) (FIG. 2).

[3] = test system: EGFR-overexpressing A431 cells; assay: Immunotoxin plus photochemical internalization (PCI), cell viability (CCK-8); type: cell-based; settings: A431, immunotoxin + PCI with the named photosensitizer + NIR
Method: After that, a new medium was added, and irradiation (6.1 mW/cm^2 for 60 min, 22 J/cm^2) with a near infrared light (700 to 1100 nm) was then carried out. Forty-eight hours after the irradiation, CCK-8 was added to the resultant, and the absorption at a wavelength of 450 nm was then measured using a plate reader, so that cell viability was measured (FIG. 8).
Using these photosensitizers, a cell experiment involving the combined use of addition of the immunotoxin and PCI was carried out.

[4] = Singlet oxygen quantum yield (DPBF, light irradiation); type: physicochemical
Method: as §1
The singlet oxygen quantum yield of PS1 was measured. […] This value was higher than the values of conventional photosensitizers, and thus, the usefulness of PS1 for photo dynamic therapy could be expected.

Question: With `NCC(=O)CCC(=O)O` [5-ALA, 5-aminolevulinic acid] as the compound, how does the “absorption maximum (λab)” value [1] read?
Answer: The value was 405 nm.

Question: For `CC1(C)C(/C=C/C=C/C=C/C=C2\N(CCCCS(=O)(=O)O)c3ccc4ccccc4c3C2(C)C)=[N+](CCCCS(=O)(=O)[O-])c2ccc3ccccc3c21` [Indocyanine green], which “absorption maximum (region)” value [2] is on record?
Answer: Its value is “in a near infrared region”.

Question: And the “photosensitization ability under near infrared light irradiation (reason given for no viability reduction)” value [3]?
Answer: Its value is “could not release a sufficient amount of singlet oxygen”.

Question: What about the “singlet oxygen quantum yield” value ([4]; in a buffer aqueous solution (pH 7.4)) of the same compound?
Answer: The value was 0.12.

Question: With `[Zn+2].c1ccc2c(c1)-c1nc-2nc2[n-]c(nc3nc([n-]c4nc(n1)-c1ccccc1-4)-c1ccccc1-3)c1ccccc21` [Zinc phthalocyanine] as the compound, how does the “absorption maximum (region)” value [2] read?
Answer: Its value is “in a visible light region”.

Question: What about the “photosensitization ability under near infrared light irradiation (reason given for no viability reduction)” value [3] of the same compound?
Answer: Its value is “photosensitization could not be performed”.

Question: What about the “singlet oxygen quantum yield” value ([4]; in DMSO) of the same compound?
Answer: The value was “high”.

— patent US12600734B2, “Photosensitizing dye” (The University of Tokyo, priority 2020, dated 2026)
